# Values quoted from earlier work, collected in patent US20240401150A1, “PANCREATIC DUCTAL ADENOCARCINOMA SIGNATURES AND USES THEREOF” (The Broad Institute, Inc., priority 2022, published 2024).
# What was measured:
# CXCR4 = CXCR4 (Homo sapiens, UniProt P61073); details: literature (ref 133)
# [1] = system: intra-tumoral cytotoxic T cells; details: previously identified (refs 20, 61)
# Sequence of CXCR4 (P61073 whole entry): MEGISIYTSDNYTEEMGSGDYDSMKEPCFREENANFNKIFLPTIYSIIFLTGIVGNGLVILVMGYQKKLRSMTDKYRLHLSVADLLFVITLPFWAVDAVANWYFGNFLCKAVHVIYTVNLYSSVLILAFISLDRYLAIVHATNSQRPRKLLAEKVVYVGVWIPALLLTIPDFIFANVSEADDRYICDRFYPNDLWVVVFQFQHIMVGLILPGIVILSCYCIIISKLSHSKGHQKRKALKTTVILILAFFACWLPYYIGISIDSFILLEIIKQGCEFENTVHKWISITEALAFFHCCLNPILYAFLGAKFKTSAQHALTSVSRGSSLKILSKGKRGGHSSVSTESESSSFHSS
smiles,measurement,setting,value
c1cc(CN2CCCNCCNCCCNCC2)ccc1CN1CCCNCCNCCCNCC1 [AMD3100],effect of clinical inhibition of CXCR4,CXCR4,integrated immune response^133
CCCCc1nc(Cl)c(CO)n1Cc1ccc(-c2ccccc2-c2nn[nH]n2)cc1 [losartan],intra-tumoral cytotoxic T cell activity,[1],increase
